Measurements: patent publication US7192768B2, “Synchronization of the cytoplasmatic and the nuclear maturation of oocytes in vitro” (Novo Nordisk A/S, priority 2001, dated 2007)
Marks after values point to notes of the source that are not given here.

Tests used:
[1] = system: cumulus enclosed mouse oocytes; assay: FSH induced resumption of meiosis of mouse oocytes cultured in vitro (dbc-AMP control medium); type: cell-based; settings: for % GVBD / % PB (PB/GVBD): 22-24 h
Experimental: Immature female mice (B6D2-F1 strain C57B1/2J) were kept under controlled light and temperature conditions with free access to food and water. Ovarian stimulation was performed when the mice weighed 10–16 grams and consisted of an intra-peritoneal injection of Gonadoplex (Leo, Copenhagen, Denmark) containing 7.5 U/mouse. The animals were killed by cervical dislocation 44–48 h later. The media used for the culture of oocytes consisted of α-Minimum Essential Medium (α-MEM), with Earles Balanced Salt Solution (EBSS), 200 μM dibuturyl-cyclic-adenosine-mono-phosphate (dbc-AMP), 3 mg/ml Bovine Serum Albumin, 0,23 mM pyruvate, 2 mM glutamine, 100 IU/ml penicillin and 100 mg/ml streptomycin (i.e. control medium). The ovaries were recovered and oocytes isolated from the ovaries by puncturing individual follicles using a 25 gauge needle. The oocytes were washed 3 times in control medium before the start of each experiment. Cumulus enclosed oocytes were cultured separately in 4-well dishes (Nuncleon, Roskilde, Denmark), 0.4 ml medium in each well containing control medium or medium supplemented with ketoconazole in a 100% humidified atmosphere of 5% CO2 with 95% air at 37° C. The culture period was 22–24 h. By the end of the culture period, germinal vesicle breakdown (GVBD) was scored by examining the oocyte in an inverted microscope. The percentage of oocytes with GVBD per total number of oocytes (% GVBD) was calculated.

[2] = system: cumulus-enclosed oocytes (CEO); assay: FSH induced resumption of meiosis of hypoxanthine arrested mouse oocytes cultured in vitro (ketoconazole); type: cell-based; settings: HX-medium; for % GVBD / % PB (PB/GVBD): 24 h
Experimental: Oocytes were obtained from immature mice (Kunming white mouse) weighing 14–16 g that were kept under controlled light and temperature conditions with free access to water. The mice received an intra peritoneal injection of 0.1 ml pregnant mare's serum gonadotrophin (PMSG, Sigma, New York, U.S.A) containing 10 IU PMSG. Forty-six hours later, the animals were killed by cervical dislocation. The ovaries were dissected out and placed in M199 culture medium (GIBCO, U.S.A) containing 4 mM hypoxanthine, 3 mg/ml bovine serum albumin, 0.23 mM pyruvate, 2 mM glutamine (all Sigma, U.S.A) and 100 IU/ml penicillin, 100 ug/ml Streptomycin. This medium was termed “HX-medium”. A media similar to the above but without HX are termed “maturation-medium”. Oocytes were isolated in HX-medium under a stereo microscope by manual rupture of follicles using a pair of 5.5-gauge needles. Spherical oocytes with intact cumulus cells connection and displaying germinal vesicle were categorized as cumulus-enclosed oocytes (CEO). Oocytes were rinsed 3 times in fresh HX-medium. Prior to each experimental set-up, all oocytes from 10–15 mice were pooled. Only oocytes with a germinal vesicle present were used and distributed in separate wells of a 4-well dish (Nuncoln, Denmark) containing 1 ml of HX-medium. Each well contained 20–30 oocytes and was cultured at 37° C. in 1000% humidity in air with 5% CO2. Each experiment was repeated at least 4 times. At the end of the culture period (i.e 24 h), oocytes with GV or GVBD, or polar body (PB) were counted using an inverted microscope with differential interference contrast equipment (Leica, German). The percentage of oocytes with GVBD per total number of oocytes (% GVBD) and the percentage of oocytes with PB formation per total number of oocytes (% PB) were calculated.

cumulus enclosed oocytes = settings: AY added to cumulus enclosed oocytes; cited from earlier work
[3] = system: cumulus-enclosed oocytes (CEO); assay: FSH induced resumption of meiosis and cumulus expansion of hypoxanthine arrested mouse oocytes cultured in vitro (22-hydroxycholesterol); type: cell-based; set-up: Cumulus expansion: key to the marks not given beside the values
Experimental: Immature female mice (B6D2-F1 strain C57B1/2J) were kept under controlled light and temperature conditions with free access to food and water. Ovarian stimulation was performed when the mice weighed 10–16 grams and consisted of an intra-peritoneal injection of Gonadoplex (Leo, Copenhagen, Denmark) containing 7.5 U/mouse. The animals were killed by cervical dislocation 44–48 h later. The media used for the culture of oocytes consisted of α-Minimum Essential Medium (α-MEM), with Earles Balanced Salt Solution (EBSS), containing 4 mM hypoxanthine, 3 mg/ml bovine serum albumin, 0.23 mM pyruvate, 2 mM glutamine (all Sigma, U.S.A) and 100 IU/ml penicillin, 100 ug/ml Streptomycin. This medium was termed “HX-medium”. A media similar to the above but without HX are termed “maturation-medium”. Oocytes were isolated in HX-medium under a stereo microscope by manual rupture of follicles using a pair of 5.5-gauge needles. Spherical oocytes with intact cumulus cells connection and displaying germinal vesicle were categorized as cumulus-enclosed oocytes (CEO). Oocytes were rinsed 3 times in fresh HX-medium. Prior to each experimental set-up, all oocytes from 10–15 mice were pooled. Only oocytes with a germinal vesicle present were used and distributed in separate wells of a 4-well dish (Nuncoln, Denmark) containing 1 ml of HX-medium. Each well contained 20–30 oocytes and was cultured at 37° C. in 100% humidity in air with 5% CO2. Each experiment was repeated at least 4 times. At the end of the culture period (i.e 24 h), oocytes with GV or GVBD, or polar body (PB) were counted using an inverted microscope with differential interference contrast equipment (Leica, German). […]
Graduation of cumulus expansion: 0: No expansion, compact cumulus layer surrounding the oocyte; +: A slight cumulus expansion, the most peripheral cumulus cell looks a little fluffy; ++: good expansion of cumulus cell without a spherical cloud like expansion; +++: full cumulus expansion with a fluffy cloud like expansion with extended distance between the somatic cells.

cultured mouse oocytes = settings: WO 98/28323; cited from earlier work
human oocytes = settings: EGF 2 ng/ml, 30 h culture; cited from earlier work
[4] = ketoconazole 5 μM in medium with FSH 75 IU/L
[5] = ketoconazole 10 μM in medium with FSH 75 IU/L
[6] = ketoconazole 20 μM in medium with FSH 75 IU/L
[7] = ketoconazole 0.1 μM + FSH 50 IU/L
[8] = ketoconazole 1 μM + FSH 50 IU/L
[9] = ketoconazole 10 μM + FSH 50 IU/L
[10] = ketoconazole 100 μM + FSH 50 IU/L
[11] = ketoconazole 1000 μM + FSH 50 IU/L
[12] = 22-OH-cholesterole 1 μg/ml + FSH 75 IU/L, with fetal calf serum
[13] = 22-OH-cholesterole 1 μg/ml + FSH 75 IU/L, without fetal calf serum
[14] = 22-OH-cholesterole 5 μg/ml + FSH 75 IU/L, without fetal calf serum
[15] = 22-OH-cholesterole 10 μg/ml + FSH 75 IU/L, with fetal calf serum
[16] = 22-OH-cholesterole 10 μg/ml + FSH 75 IU/L, without fetal calf serum
[17] = 22-OH-cholesterole 25 μg/ml + FSH 75 IU/L, with fetal calf serum
[18] = 22-OH-cholesterole 25 μg/ml + FSH 75 IU/L, without fetal calf serum

## CC(=O)N1CCN(c2ccc(OCC3COC(Cn4ccnc4)(c4ccc(Cl)cc4Cl)O3)cc2)CC1 (centres unmarked) [Ketoconazole, ketoconazole]
[1]; [4]
  % GVBD: 7%
  % PB (PB/GVBD): 57%
[1]; [5]
  % GVBD: 7%
  % PB (PB/GVBD): 8%
[1]; [6]
  % GVBD: 3%
  % PB (PB/GVBD): 0%
[1]; ketoconazole 5-20 μM with FSH 75 IU/L
  effect on FSH induced resumption of meiosis (in words): able to prevent oocytes resuming meiosis
[2]; [7]
  % GVBD: 58%
  % PB (PB/GVBD): 33%
[2]; [8]
  % GVBD: 48* %
  % PB (PB/GVBD): 30%
[2]; [9]
  % GVBD: 35* %
  % PB (PB/GVBD): 25%
[2]; [10]
  % GVBD: 20* %
  % PB (PB/GVBD): 19* %
[2]; [11]
  % GVBD: 21* %
  % PB (PB/GVBD): 17* %
[2]; ketoconazole with FSH 50 IU/L
  effect on FSH induced resumption of meiosis (in words): prevents oocytes from resuming meiosis
  effect on PB formation (in words): dose-dependant inhibition of PB formation

## AY-9944-A-7
Cumulus enclosed oocytes
  accumulation of FF-MAS (in words): causes accumulation of FF-MAS
  resumption of meiosis (in words): dose-dependant induction of resumption of meiosis

## CC(C)CCC(O)[C@@H](C)[C@H]1CC[C@H]2[C@@H]3CC=C4C[C@@H](O)CC[C@]4(C)[C@H]3CC[C@]12C (some centres unmarked) [22-OH-cholesterole, 22-hydroxycholesterol]
[3]; [12]
  % GVBD: 41%
  % PB (PB/GVBD): 29%
  Cumulus expansion: +++
[3]; [13]
  % GVBD: 62%
  % PB (PB/GVBD): 25* %
[3]; 22-OH-cholesterole 3 μg/ml alone (no FSH), without fetal calf serum, HX-medium, 24 h
  % GVBD: 26%
[3]; [14]
  % GVBD: 72%
  % PB (PB/GVBD): 26* %
[3]; [15]
  % GVBD: 39* %
  % PB (PB/GVBD): 14* %
[3]; [16]
  % GVBD: 31* %
  % PB (PB/GVBD): 11* %
[3]; [17]
  % GVBD: 19* %
  % PB (PB/GVBD): 28* %
[3]; [18]
  % GVBD: 17* %
  % PB (PB/GVBD): 0* %
[3]; tables 3 and 4, FSH 75 IU/L
  cumulus expansion with 22-hydroxycholesterol and FSH compared with FSH alone (in words): occurs to similar degree
  effect on FSH induced resumption of meiosis (in words): prevents oocytes from resuming meiosis in the presence of FSH
Cultured mouse oocytes
  effect on FF-MAS induced resumption of meiosis (in words): can prevent a FF-MAS induced resumption of meiosis

## EGF: epidermal growth factor (NSDSECPLSHDGYCLHDGVCMYIEALDKYACNCVVGYIGERCQYRDLKWWELR; UniProt P01133 971-1023, looked up)
Human oocytes
  number of germinal vesicle oocytes reaching metaphase II (in words): enhanced
